Test results published in US20120328605A1, “COMPOSITIONS AND USES” (priority 2010, published 2012).
Where no end group is shown, it is not given here. The star is where a group is joined. Pam3Cys = N-terminal lipid (lipidation), CCCCCCCCCCCCCCCC(=O)N[C@@H](CSCC(COC(=O)CCCCCCCCCCCCCCC)OC(=O)CCCCCCCCCCCCCCC)C(=O)*

Assays:
BV2 microglia cells = assay: In vitro phagocytosis of Aβ1-42 in BV2 cells, Western blot; format: cell-based, mouse; conditions: 5 μg/mL cytochalasin D; FIG. 16
Procedure: For total Aβ detection, 10-30 μg of cell extracts were separated on a precast 10-20% SDS polyacrylamide Tris-Tricine gel (Bio-Rad, Canada). Separated proteins were then transferred onto polyvinylidene fluoride (PVDF) membranes (PerkinElmer, Canada). Membrane were incubated in DPBS (Gibco, USA) at 90° C. for 10 min. Membrane were then incubated for 1 hour in blocking solution, which consist in TBS-T (50 mM Tris-HCl pH 8,0; 150 mM NaCl; 0.05% Tween 20) supplemented with 1% BSA (Sigma, Canada) and 5% non-fat dry milk, and probed for 16 hours at 4° C. with a mouse anti-amyloid beta protein monoclonal antibody clone 6E10 (Covance, USA) diluted to 1:1000 in TBS-T supplemented with 5% BSA and 0.02% sodium azide. Membranes were washed once for 15 min and three times for 5 min in TBS-T at room temperature. […] Films were digitalized using a HP Scanjet 4370 (HP) and signal intensity was measured using ImageJ (version 1.44p, NIH).
Aβ specific antibodies stimulate the uptake of soluble Aβ1-42 toxic peptides in an actin polymerization-dependent mechanism. […] Cells were incubated for the indicated period of time, resuspended by trypsinization, collected, solubilised in lysis buffer and further analyzed by immunoblotting. […]

[1] = system: human microglial cell line CHME; assay: Phagocytosis of beta-amyloid 1-42 peptide by CHME cells; format: cell-based; conditions: Pam3Cys lip peptide 5 ug per ml, FIG. 18
Procedure: Phagocytosis of beta-amyloid 1-42 peptide by the human microglial cell line CHME was observed after the addition of TLR2 agonist containing adjuvants Protollin and Pam3CysLip peptide. […] The synthetic peptide sequence of the Pam3Cys Lip peptide is described herein: Pam3Cys-SQ EPAAPAAEAT PAAEAP. Protollin was used at concentration 1 ug per ml based on the LPS content from Shigella flexneri. Pam3Cys lip peptide was used at concentration of 5 ug per ml of the pure tri-palmitoylated peptide.
Additionally, cells were imaged using 42 HiLyte 488 Fluo (Anaspec, Inc.) at 2 ug per ml in DMEM complete media (Invitrogen). Lysotracker red staining was performed and slides were mounted and co-stained with DAPI to show the nucleus (blue). […] Lysotracker red reagent was purchased from Invitrogen and used as manufacturer recommendations.

Lineage-CD11b+ monocytes = assay: Monocyte analysis and counting after adjuvant injection in mice; format: in vivo, C57BL/6 mice
Procedure: (§1) 24-Hours after injection of the TLR adjuvants, peripheral blood was drawn from C57BL/6 mice via cardiac puncture with lithium-heparin as anticoagulant. Red blood cell lysis was performed twice on pooled blood with Ammonium Chloride-based Buffer (Sigma, Steinheim, Germany) and cells were counted with the EasyCount™ System (Immunicon). […] Cells were finally washed three times and fixed for 15 min. with a 2% paraformaldehyde solution in PBS. Fluorescence minus one (FMO) controls were always included in the assays for fluorescent compensation setting. Samples were acquired on a flow cytometer (BD FACSCanto II) and data analyzed with the FACSDiva software (BD Biosciences). Monocytes were identified by their Side/Forward scatter properties and gated as CD3-/CD45R/B220-/Ly-6G-/NK1.1-(Lineage-)/CD11b+ cells. CD11b+ monocyte frequency was reported as a percentage of the total cells excluding debris.
as §1, with “24 hours” for “24-Hours”, “each immunomodulator,” for “the TLR adjuvants,”, “min” for “min.”, “monocytes” for “monocyte”

PDAPP mice = conditions: immunization of young PDAPP mice; cited from earlier work
APPSwe/PS1 mice = assay: T-water maze; format: in vivo; conditions: Example 21: twelve weekly injections; CRX527, CRX601 20 μg i.p., 3D MPL 50 μg i.p., AS01B 1/10th human dose i.m.; FIG. 24
Procedure: Five groups of APPSwe/PS1 mice received one a week for a period of 12 weeks the following treatment: • Gr1: APPSwe/PS1+NaCl 0.9% n(=20), i.p. injections • Gr4: APPSwe/PS1+CRX527 (20 μg/mouse, 130 μl, n=10), i.p. injections • Gr5: […] (50 μg/mouse, 130 μl, n=10), i.p. injections • Gr8 APPSwe/PS1+AS15 ( 1/10th of human dose, 50 μl, n=10), i.m. injections • Gr9: APPSwe/PS1+AS01B ( 1/10th of human dose, 50 μl, n=10), i.m. injections
Mice were tested during the “light on” phase of the day. Behavioral experimenter was blinded to the genetic and treatment status of animals. To assess hippocampal-dependent spatial learning and memory, mice were trained in the T-water maze task. In this paradigm, we evaluate the mouse's ability to remember the spatial location of submerged platform. The T-maze apparatus (length of stem, 64 cm; length of arms, 30 cm; width, 12 cm; height of walls, 16 cm) was made of clear fiberglass and filled with water (23±1° C.) at a height of 12 cm. A platform (11×11 cm) was placed at the end of the target arm and was submerged 1 cm below the surface. The acquisition phase allows to evaluate animals for left-right spatial learning. During the first two trials, platforms were placed on each arms of the maze to test the spontaneous turning preference of the mouse. After these two trials, the least chosen arm was reinforced by the escape platform. The mice were placed in the stem of the T-maze and choose to swim either left or right until they found the submerged platform and escape to it, to a maximum of 60 s. After reaching the platform, the mice remained on it for 20 s and then were immediately placed back in the maze. […] Repeated trials were presented on the same day up to a maximum of 48 trials. A rest period of at least 10-15 min intervened between each block of 10 trials. A mouse was considered to have learned the task when it made no errors in a block of five consecutive trials. […] The number of trials to reach the criterion (five of five correct choices made on consecutive trials) was measured as well as the latency to find the escape platform.

Aβ42 = Aβ42 specific immunogenicity in the amyloid deposition mouse model; format: in vivo, TASTPM mice; conditions: 12 injections of 10 ug, intramuscular route; FIG. 29
Procedure: Whole blood is collected from mice and centrifuged on a vacutainer blood collection tube containing gel for serum separation. Serum samples are stored at −80° C. Streptavidin-coated plates (Greiner Bio-One, Germany) are first coated with beta-amyloid (1-42)-Lys(Biotin)-NH2 peptide (Anaspec, Inc.) at 0.5 μg/mL, using 50 mM sodium carbonate buffer, overnight at 4° C. Plates are then washed using a 4 times using PBS/0.05% Tween 20. Super Block (ScyTek laboratories) is added to the plates and incubated at 37° C. for at least one hour. Serum samples and standard (anti Aβ42 antibody (6E10 antibody, Covance, Inc.) are serially diluted in the plates and incubated at 37° C. for 2 hours. After a wash step, diluted peroxidase AffiniPure goat anti-mouse IgG, Fcγ fragment specific (Jackson ImmunoResearch Laboratories Inc.) is added for 1 hour at 37° C. A last wash is performed before adding TMB substrate reagent (BD OptEIA™, BD Biosciences) for 30 min at RT. Immediately, plates are stopped using 2N sulfuric acid, and then read at 450 nm using SpectraMax microplate reader (Molecular Devices, Inc.).

TASTPM mice = assay: T-water maze test in TASTPM; format: in vivo; conditions: 12 weekly i.m. injections; FIG. 30
Procedure: To determine whether a TLR2 agonist will improve the cognitive impairment in TASTPM mice, the Pam3CysLip adjuvant fused to the Aβ1-6 peptide was injected 12 times at weekly basis using the intramuscular route and the memory was assessed using the T-water maze test. […] TASTPM mice have received one a week for a period of 12 weeks the following treatment: PBS or mice have received once a week for a period of 12 weeks the following treatment: PBS or of Pam3CysLip Aβ1-6 peptide.

## C=C1[C@@H](C)[C@H]2[C@H](Cc3ccccc3)NC(=O)[C@]23[C@H](OC(C)=O)/C=C/[C@@](C)(O)C(=O)[C@@H](C)C/C=C/[C@H]3[C@@H]1O [cytochalasin D]
BV2 microglia cells
  effect on 2E7-increased cellular uptake of Aβ1-42: inhibited

## Pam3Cys-SQ EPAAPAAEAT PAAEAP (Pam3Cys-SQEPAAPAAEATPAAEAP) [Pam3CysLip peptide, TLR2 agonist, tri-palmitoylated peptide from Neisseria meningitidis strain 8047]
[1]; pre-incubation 18 hrs
  phagocytosis: 86 % of cells
[1]; Protollin 1 ug per ml (LPS content), 18 hrs, vs PBS
  phagocytosis of Aβ1-42 by CHME: higher amyloid phagocytic activity

## QS21 [reference compound]
Lineage-CD11b+ monocytes; single i.m. injection, 24 hrs, FIG. 19B
  activated Ly6C+ monocytes: 75%
Lineage-CD11b+ monocytes; single i.m. injection, after 24 hrs, QS21 5 μg, FIG. 19A
  number of monocytes, % of total peripheral white blood cells: 9.1%

## synthetic human Aβ1-42: synthetic human Aβ1-42 used to immunize PDAPP mice
PDAPP mice
  AD-like neuropathologies: reduce the extent and progression

## CCCCCCCCCCC[C@H](CC(=O)N[C@H]1[C@H](OC[C@H](NC(=O)C[C@@H](CCCCCCCCCCC)OC(=O)CCCCCCCCC)C(=O)O)O[C@H](CO)[C@@H](OP(=O)(O)O)[C@@H]1OC(=O)C[C@@H](CCCCCCCCCCC)OC(=O)CCCCCCCCC)OC(=O)CCCCCCCCC [CRX527]
Lineage-CD11b+ monocytes; i.m. or i.p. routes, doses of b403, FIG. 9
  circulating monocytes numbers following injection: Upregulation of circulating monocytes numbers
APPSwe/PS1 mice
  behaviour as assessed by T water maze testing: significant improvements in behaviour

## Pam3Cys-SQ EPAAPAAEAT PAAEAPDAEFRH (Pam3Cys-SQEPAAPAAEATPAAEAPDAEFRH) [Pam3CysLip Aβ1-6 peptide]
Aβ42
  anti Aβ42 specific immunogenicity: High and specific anti Aβ42 specific immunogenicity
TASTPM mice
  right-left discrimination tests (T-water maze) vs PBS injected group: trend of improvement
